In patent publication US20100112040A1, “Preparation of Heavy Metal-Containing Nano-Liposomes and their Uses in Medical Therapy” (S.B. BIOTECHNOLOGIES LTD., priority 2006, published 2010):
Like-named read-outs stand apart in the source and are kept apart here.

Key:
[1] = 200 μl i.p., 2 mg of gold/ml
Protocol: (§1) Balb/C mice which had tumors on their thighs (KHJJ line, breast cancer) were used in these experiments. The mice were injected i.p. with 200 μl of liposomes containing 2 mg of gold atoms per/ml solution, and after 24 hours the animals were dissected and various internal organs were harvested, which included the tumor, brain, heart, lungs, spleen, liver, kidneys, and blood. The organs were rinsed and prepared for ICP-MS analysis. In control experiments, mice were injected with a solution containing 2 mg of gold/ml without confinement in liposomes.

[2] = 200 μl i.p. of 2 mg/ml gold, 24 hours
Protocol: as §1
1. A solution of gold chloride of 2 mg/ml (2000). The gold was not confined in liposomes. 2. A gold-containing liposome solution (2000) of gold content of 2 mg/ml.

[Cl][Au]([Cl])[Cl] [gold chloride solution, gold chloride]
survival of injected mice (toxicity of gold) [1]: died after 24 hours | Gold atoms per cell ([2]; Bladder): 1.30E+10 atoms per cell | Gold atoms per cell ([2]; Blood): 1.37E+08 atoms per cell | Gold atoms per cell ([2]; Brain): 1.62E+07 atoms per cell | Gold atoms per cell ([2]; Heart): 1.63E+09 atoms per cell | Gold atoms per cell ([2]; Kidneys): 1.58E+09 atoms per cell | Gold atoms per cell ([2]; Liver): 1.88E+08 atoms per cell | Gold atoms per cell ([2]; Lungs): 1.36E+08 atoms per cell | Gold atoms per cell ([2]; Spleen): 3.34E+08 atoms per cell | Gold atoms per cell ([2]; Tumor): 1.10E+08 atoms per cell
